Here are results for 23 compounds from US8119624B2, “Fused phenyl amido heterocyclic compounds” (Pfizer Inc., priority 2006, dated 2012).

pEC50: −log10 of the molar value. Where two headings read alike, the source gives them in different places.

This experiment concerns the target T1, Full-length glucokinase (beta cell isoform) (Homo sapiens, UniProt P35557).
T1 construct: Full-length glucokinase (beta cell isoform) was His-tagged at N-terminus; His tag (N); made in house
T1 sequence (P35557 1-465): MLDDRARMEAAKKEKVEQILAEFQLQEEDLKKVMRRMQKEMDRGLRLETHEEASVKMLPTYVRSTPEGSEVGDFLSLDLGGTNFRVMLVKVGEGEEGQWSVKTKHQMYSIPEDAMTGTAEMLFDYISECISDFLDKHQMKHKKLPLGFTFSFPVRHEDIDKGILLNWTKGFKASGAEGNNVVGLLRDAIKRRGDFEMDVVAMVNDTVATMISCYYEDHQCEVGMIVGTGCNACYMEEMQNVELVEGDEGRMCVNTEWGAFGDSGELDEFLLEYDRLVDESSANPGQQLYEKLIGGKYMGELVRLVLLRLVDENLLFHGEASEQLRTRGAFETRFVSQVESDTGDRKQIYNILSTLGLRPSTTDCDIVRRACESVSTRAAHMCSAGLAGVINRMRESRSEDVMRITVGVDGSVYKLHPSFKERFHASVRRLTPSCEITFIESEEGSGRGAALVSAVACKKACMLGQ
Nature of the experiment: Glucokinase biochemical assay (PK/LDH-coupled, NADH depletion at 340 nm): % activation, EC50, % max activation. The following applies: 5 mM glucose; for activation at 10 µM: read-out: % Activation at 10 uM; for pEC50: read-out: EC50; for Emax: fitted maximum activation, read-out: % Max Activation. The essentials:
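Activation expressed as (Va/Vo−1)×100, where initial rates with and without compound come from NADH depletion at 340 nm over 200–900 s. Enzyme is His-tagged human beta-cell GK, full length, run at room temperature in HEPES buffer with 1 mM ATP and 5 mM glucose. DMSO 1%.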

Where [1] appears, read: 10 uM compound, % Activation=(Va/Vo−1)×100.
Setting [2] is: compound at 10 uM, 1 mM ATP, room temperature.

As for `Cn1ccc(NC(=O)c2cc(Oc3ccc(S(C)(=O)=O)cc3)cc3c2CC(C)(C)O3)n1` [Example 199, 6-(4-Methanesulfonyl-phenoxy)-2,2-dimethyl-2,3-dihydro-benzofuran-4-carboxylic acid (1-methyl-1H-pyrazol-3-yl)-amide], the activation at 10 µM under setting [1] is 40.3%. For the same compound, for the setting “GK activation”, the pEC50 is less than 5.00.

Take `CC(C)CN1CCc2c(Oc3ccc(S(C)(=O)=O)cc3)cc(C(=O)Nc3ccn(C)n3)cc2C1=O` [Example 389, 2-Isobutyl-N-(1-methyl-1H-pyrazol-3-yl)-5-[4-(methylsulfonyl)-phenoxy]-1-oxo-1,2,3,4-tetrahydroisoquinoline-7-carboxamide]: under setting [2], the activation at 10 µM came out at 32.9%.

Regarding `Cn1ncc(NC(=O)c2cc(Oc3ccc(-c4ncon4)c(F)c3)c3c(c2)OC(C)(C)C3)n1` [Example 186, 4-(3-Fluoro-4-[1,2,4]oxadiazol-3-yl-phenoxy)-2,2-dimethyl-2,3-dihydro-benzofuran-6-carboxylic acid (2-methyl-2H-[1,2,3]triazol-4-yl)-amide], the Emax was determined as 234%. Under setting [1], the activation at 10 µM is 135%. Also, the negative logarithm of the EC50 (pEC50) (GK activation) was 6.80.

Consider `Cc1ccc(NC(=O)c2cc(Oc3ccc(S(C)(=O)=O)cc3)c3c(c2)C(=O)N(CC(C)C)CC3)nc1` [Example 391, 2-Isobutyl-N-(5-methylpyridin-2-yl)-5-(4-(methylsulfonyl)-phenoxy)-1-oxo-1,2,3,4-tetrahydroisoquinoline-7-carboxamide], for which the pEC50 (1 mM ATP, room temperature) was less than 5.00. Besides, under setting [2], the activation at 10 µM is 45.2%.

Regarding `Cn1ccc(NC(=O)c2cc(Oc3ccc(C(=O)N4CCC4)cc3F)c3c(c2)OC(C)(C)C3)n1` [Example 32, 4-[4-(Azetidine-1-carbonyl)-2-fluoro-phenoxy]-2,2-dimethyl-2,3-dihydro-benzo-furan-6-carboxylic acid(1-methyl-1H-pyrazol-3-yl)-amide], the Emax worked out at 177%. Further, under setting [1], the activation at 10 µM was found to be 164%. Moreover, the negative-log EC50 (pEC50) (GK activation) was 6.68.

Regarding `CN(C)S(=O)(=O)c1ccc(Oc2cc(C(=O)Nc3cnn(C)n3)cc3c2CC(C)(C)O3)cc1F` [Example 132, 4-(4-Dimethylsulfamoyl-3-fluoro-phenoxy)-2,2-dimethyl-2,3-dihydro-benzofuran-6-carboxylic acid (2-methyl-2H-[1,2,3]triazol-4-yl)-amide], the Emax came out at 280%. For the same compound, under setting [1], the activation at 10 µM amounted to 288%. Further, the pEC50 (GK activation) is 6.77.

`Cc1cc2cc(C(=O)Nc3ccn(C)n3)cc(O[C@@H](C)Cc3ccccc3)c2s1` [Example 328, 2-Methyl-7-(1-methyl-2-phenylethoxy)-N-(1-methyl-1H-pyrazol-3-yl)-1-benzothiophene-5-carboxamide]: under setting [1], the activation at 10 µM was 41.3%. Also, the pEC50 (GK activation) was less than 5.00.

For `COCc1cc2c(Oc3ccc(S(C)(=O)=O)cc3)cc(C(=O)Nc3ccc(C)cn3)cc2o1` [Example 309, 2-(Methoxymethyl)-N-(5-methylpyridin-2-yl)-4-[4-(methylsulfonyl)-phenoxy]-1-benzofuran-6-carboxamide], the Emax was 81%. Under setting [1], the activation at 10 µM was 72.3%. Besides, for the setting “GK activation”, the pEC50 is 6.64.

For `Cc1ccc(NC(=O)c2cc(Oc3ccc(S(C)(=O)=O)cc3)c3cc(C(=O)N4CCC4)oc3c2)nc1` [Example 290, 2-(Azetidin-1-ylcarbonyl)-N-(5-methylpyridin-2-yl)-4-[4-(methylsulfonyl)-phenoxy]-1-benzofuran-6-carboxamide], the activation at 10 µM under setting [1] is 12.8%.

Regarding `Cc1nc(COc2cc(C(=O)Nc3ccn(C)n3)cc3c2CC(C)(C)O3)no1` [Example 96, 2,2-Dimethyl-4-(5-methyl-[1,2,4]oxadiazol-3-ylmethoxy)-2,3-dihydro-benzofuran-6-carboxylic acid (1-methyl-1H-pyrazol-3-yl)-amide], the Emax amounted to 148%. For the same compound, the activation at 10 µM under setting [1] was 107%. The pEC50 (GK activation) was 5.14.

Take `Cc1ccnc(C(C)Oc2cc(C(=O)Nc3ccn(C)n3)cc3c2CC(C)(C)O3)c1` (stereo not shown) [Example 87, 2,2-Dimethyl-4-[1-(4-methyl-pyridin-2-yl)-ethoxy]-2,3-dihydro-benzofuran-6-carboxylic acid (1-methyl-1H-pyrazol-3-yl)-amide]: the Emax is 136%. Besides, the activation at 10 µM under setting [1] stood at 73.6%. Besides, under “GK activation”, the pEC50 is 5.07.

Take `CN(C)C(=O)c1ccc(Oc2cc(C(=O)Nc3ccn(C)n3)cc3occc23)cc1F` [Example 341, 4-(4-(Dimethylcarbamoyl)-3-fluorophenoxy)-N-(1-methyl-1H-pyrazol-3-yl)benzofuran-6-carboxamide]: the Emax was determined as 69%. Also, the activation at 10 µM under setting [1] came to 59%. Moreover, under “GK activation”, the pEC50 was 5.77.

Consider `Cn1ccc(NC(=O)c2cc(Oc3ccc(C(=O)N4CC(O)C4)cc3F)c3c(c2)OC(C)(C)C3)n1` [Example 45, 4-[2-Fluoro-4-(3-hydroxy-azetidine-1-carbonyl)-phenoxy]-2,2-dimethyl-2,3-dihydro-benzofuran-6-carboxylic acid(1-methyl-1H-pyrazol-3-yl)-amide], for which the Emax was 146%. Moreover, under setting [1], the activation at 10 µM was found to be 150%. Where the note is “GK activation”, the pEC50 was 6.24.

For the compound `Cc1ccc(NC(=O)c2cc(Oc3ccc(C(=O)N(C)C)c(F)c3)c3c(c2)OC(C)(C)C3)nc1` [Example 148, 4-(4-Dimethylcarbamoyl-3-fluoro-phenoxy)-2,2-dimethyl-2,3-dihydro-benzofuran-6-carboxylic acid (5-methyl-pyridin-2-yl)-amide], the Emax came to 53%. Further, the activation at 10 µM under setting [1] was 49.5%. For the setting “GK activation”, the pEC50 is 7.37.

For the compound `Cn1ccc(NC(=O)c2cc(Oc3ccc(C(=O)O)nc3)c3c(c2)OC(C)(C)C3)n1` [Example 180, 5-[2,2-Dimethyl-6-(1-methyl-1H-pyrazol-3-ylcarbamoyl)-2,3-dihydro-benzofuran-4-yloxy]-pyridine-2-carboxylic acid], the activation at 10 µM under setting [1] stood at 66.5%. For the same compound, the pEC50 (GK activation) is less than 5.00.

Consider `Cc1ccc(NC(=O)c2cc(Oc3ccc(C(=O)N(C)C)nc3)c3cc(C)oc3c2)nc1` [Example 277, N,N-Dimethyl-5-[(2-methyl-6-{[(5-methylpyridin-2-yl)amino]-carbonyl}-1-benzofuran-4-yl)oxy]pyridine-2-carboxamide], for which, under setting [1], the activation at 10 µM was 34.2%.

For the compound `CN(C)C(=O)c1ccc(Oc2cc(C(=O)Nc3ccc(CO)cn3)cc3c2CC(C)(C)O3)cc1F` [Example 145, 4-(4-Dimethylcarbamoyl-3-fluoro-phenoxy)-2,2-dimethyl-2,3-dihydro-benzofuran-6-carboxylic acid (5-hydroxymethyl-pyridin-2-yl)-amide], the Emax came out at 46.5%. Moreover, the activation at 10 µM under setting [1] stood at 47.2%. Where the note is “GK activation”, the pEC50 is 7.14.

As to `COc1ccnc(NC(=O)c2cc(Oc3ccc(S(C)(=O)=O)cc3)c3c(c2)OC(C)(C)C3)c1` [Example 18, 4-(4-Methanesulfonyl-phenoxy)-2,2-dimethyl-2,3-dihydro-benzofuran-6-carbo-xylic acid(4-methoxy-pyridin-2-yl)-amide], the Emax came to 114%. Besides, the activation at 10 µM under setting [1] turned out to be 105%. For the same compound, the pEC50 (GK activation) was 6.02.

On to `Cc1ccc(NC(=O)c2cc(Oc3ccc(S(C)(=O)=O)cc3)c3sccc3c2)nc1` [Example 363, 7-(4-Methanesulfonyl-phenoxy)-benzo[b]thiophene-5-carboxylic acid(5-methyl-pyridin-2-yl)-amide], for which the Emax stood at 99%. Further, under setting [1], the activation at 10 µM was found to be 52.3%. Moreover, for the setting “GK activation”, the pEC50 was 5.12.

Turning to `Cc1cc2cc(C(=O)Nc3ccn(C)n3)cc(Oc3ccc(C(=O)N(C)C)cc3)c2s1` [Example 331, 7-{4-[(Dimethylamino)carbonyl]phenoxy}-2-methyl-N-(1-methyl-1H-pyrazol-3-yl)-1-benzothiophene-5-carboxamide], the Emax is 56%. The activation at 10 µM under setting [1] is 47.4%. For the same compound, the pEC50 (GK activation) is 6.49.

Regarding `Cc1cc2c(Oc3ccc(S(C)(=O)=O)cc3)cc(C(=O)Nc3ccon3)cc2o1` [Example 258, N-(Isoxazol-3-yl)-2-methyl-4-(4-(methylsulfonyl)phenoxy)-benzofuran-6-carboxamide], the Emax stood at 142%. In addition, the activation at 10 µM under setting [1] is 99.7%. Moreover, the negative logarithm of the EC50 (pEC50) (GK activation) was 5.24.

With `Cn1ccc(NC(=O)c2cc(Oc3ccc(C(=O)N4CCC4)cc3)c3c(c2)OC(C)(C)C3)n1` [Example 35, 4-[4-(Azetidine-1-carbonyl)-phenoxy]-2,2-dimethyl-2,3-dihydro-benzofuran-6-carboxylic acid(1-methyl-1H-pyrazol-3-yl)-amide], the Emax amounted to 145%. The activation at 10 µM under setting [1] was 145%. For the same compound, the pEC50 (GK activation) was 6.98.

In the case of `Cc1cc2c(Oc3ccc(S(C)(=O)=O)cn3)cc(C(=O)Nc3ccn(C)n3)cc2o1` [Example 283, 2-Methyl-N-(1-methyl-1H-pyrazol-3-yl)-4-(5-(methylsulfonyl)-pyridin-2-yloxy)-benzofuran-6-carboxamide], under setting [1], the activation at 10 µM is 132%. For the same compound, the pEC50 (GK activation) is less than 5.00.

As usually defined, the pEC50 is the EC50 on a negative log10 scale, so that one unit is a factor of ten.
